Key:
FKBP52 = target: T1, FKBP52 (Homo sapiens, UniProt Q02790); assay: Fluorescence polarization (FP) assay, binding to the FK506-binding domain of FKBP52; conditions: FK506-binding domain of FKBP52 (FKBP52FK1), competition with fluorescent ligand 2b
T1 sequence (Q02790 50-138 limits assumed): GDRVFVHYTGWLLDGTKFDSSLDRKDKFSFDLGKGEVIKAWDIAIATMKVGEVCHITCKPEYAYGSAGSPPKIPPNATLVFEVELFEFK
Experimental: (§1) In the present invention, in vitro fluorescence polarization assays with the compounds of the general formula (I) were performed to determine the binding affinities to FKBP51 and FKBP52 or to the isolated FK506-binding domains of FKBP51 and FKBP52 ([…]). Binding to the isolated FK506-binding domains is reliably indicative of binding to the full length proteins. The affinities for the isolated FK506-binding domains and for full-length FKBP51 or FKBP52 are the same for all compounds tested so far (Kozany et al, ChemBioChem 2009, 10, 1402-1410).
(§2) Example 11: Fluorescence Polarization (FP) Assays
(§3) In-vitro fluorescence polarization assays were performed to determine the binding affinities for FKBP51 and 52 according to a literature procedure (Kozany, C.; Marz, A.; Kress, C.; Hausch, F., Fluorescent probes to characterise FK506-binding proteins. Chembiochem 2009, 10, (8), 1402-10).
(§4) For fluorescence polarization assays the fluorescent ligand 2b was dissolved in HEPES (20 mm, pH 8), Triton-X100 (0.01%), at double the concentration required for the final sample. The target protein was also diluted in this assay buffer at double the highest concentration required for the final sample. This protein stock was used for a 1:1 serial dilution.
(§5) The fluorescent ligand 2b was diluted in assay buffer to a concentration double the final concentration (20 nM 2b). The inventive compound was dissolved in DMSO to reach a 100-times concentrated stock solution. This was used for a 1:1 serial dilution in DMSO. Every sample of this serial dilution was diluted by a factor of 50 in assay buffer supplemented with ligand 2b to achieve a 2× concentrated mixture of ligand 2b and the inventive compound. To this competitive ligand double the protein concentration for 2b assay: FKBP51FK1 560 nM (2×280 nM) or FKBP52FK1 800 nM (2×400 nM) diluted in assay buffer was added.
(§6) The samples were transferred to black 384-well assay plates (No.: 3575; Corning Life Sciences). After incubation at room temperature for 30 min the fluorescence anisotropy was measured (GENios Pro, Tecan, Männedorf, Switzerland) by using an excitation filters of 485/20 nm and emission filters of 535/25 nm. The binding assays were performed in duplicates in the plate format.
(§7) The competition curves were analyzed by using SigmaPlot9. Data were fitted to a four parameter logistic curve to deduce the IC50 values. For the analysis of K1 values, data were fitted to the following equation (Z. X. Wang, FEBS Lett. 1995, 360, 111-114). A=(Amax−Amin)/[L]t×(([L]t×((2×((Klig+Kcomp+[L]t+[I]t−[R]t)^2−3×(Kcomp×([L]t−[R]t)+Klig×([I]t−[R]t)+[…]))^0.5×COS(ARCCOS((−2×(Klig+Kcomp+[L]t+[I]t−[R]t)^3+9×(Klig+Kcomp+[L]t+[I]t−[R]t)×(Kcomp×([L]t−[R]t)+Klig×([I]t−[R]t)+Klig×Kcomp)−27×(−1×Klig×Kcomp×[R]t))/(2×((((Klig+Kcomp+[L]t+[I]t−[R]t)^2−3×(Kcomp×([L]t−[R]t)+Klig×([I]t−[R]t)+Klig×Kcomp))^3)^0.5)))/3))−(Klig+Kcomp+[L]t+[I]t−[R]t)))/((3×Klig)+((2×((Klig+Kcomp+[L]t+[I]t−[R]t)^2−3×(Kcomp×([L]t−[R]t)+Klig×([I]t−[R]t)+Klig×Kcomp))^0.5×COS(ARCCOS((−2×(Klig+Kcomp+[L]t+[I]t−[R]t)^3+9×(Klig+Kcomp+[L]t+[I]t−[R]t)×(Kcomp×([L]t−[R]t)+Klig×([I]t−[R]t)+Klig×Kcomp)−27×(−1×Klig×Kcomp×[R]t))/(2×((((Klig+Kcomp+[L]t+[I]t−[R]t)^2−3×(Kcomp×([L]t−[R]t)+Klig×([I]t−[R]t)+Klig×Kcomp))^3)^0.5)))/3))−(Klig+Kcomp+[L]t+[I]t−[R]t)))+Amin
(§8) In this equation Klig and Kcomp stand for the Kd values of the used tracer or competing inhibitor, [I]t is referring to the total concentration of the titrated inhibitor.

FKBP51 = target: T2, FKBP51 (Homo sapiens, UniProt Q13451); assay: Fluorescence polarization (FP) assay, binding to the FK506-binding domain of FKBP51; conditions: FK506-binding domain of FKBP51 (FKBP51FK1), competition with fluorescent ligand 2b
T2 sequence (Q13451 42-130 limits assumed): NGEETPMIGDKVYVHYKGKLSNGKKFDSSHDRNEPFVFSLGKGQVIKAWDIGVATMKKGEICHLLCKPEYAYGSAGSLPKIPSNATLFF
Experimental: as §1, §2, §3, §4, §5, §6, §7, §8

SMILES	Ki (FKBP52)	Ki (FKBP51)
C#CCN1C[C@H](COC)[C@H]2CCC[C@@H](C1=O)N2S(=O)(=O)c1cc(Br)cc(Br)c1 [Compound N3, (1S,5S,6R)-10-((3,5-dibromophenyl)sulfonyl)-5-(methoxymethyl)-3-(prop-2-yn-1-yl)-3,10-diazabicyclo[4.3.1]decan-2-one]	100 to 500 nM	100 to 500 nM
C#CCN1C[C@H](COC)[C@H]2CCC[C@@H](C1=O)N2S(=O)(=O)c1cc(Cl)cc(C(N)=O)c1 [Compound N6, 3-chloro-5-(((1S,5S,6R)-5-(methoxymethyl)-2-oxo-3-(prop-2-yn-1-yl)-3,10-diazabicyclo[4.3.1]decan-10-yl)sulfonyl)benzamide]	100 to 500 nM	100 to 500 nM
COc1ccc(OCCN2CCC3CCCC(C2=O)N3S(=O)(=O)c2ccc3ncsc3c2)cc1OC (stereo not shown) [Ref. 2, reference compound]	1000 to 5000 nM	1000 to 5000 nM
COCCCCN1C[C@@H](CO)[C@H]2CCC[C@@H](C1=O)N2S(=O)(=O)c1cc(Cl)cc(Cl)c1 [Compound J7, (1S,5R,6R)-10-((3,5-dichlorophenyl)sulfonyl)-5-(hydroxymethyl)-3-(4-methoxybutyl)-3,10-diazabicyclo[4.3.1]decan-2-one]	500 to 1000 nM	500 to 1000 nM
CCOCCN1C[C@H](C(O)CO)[C@H]2CCC[C@@H](C1=O)N2S(=O)(=O)c1cc(Cl)cc(Cl)c1 (stereo partly drawn) [Compound C3, (1S,5S,6R)-10-((3,5-dichlorophenyl)sulfonyl)-5-(1,2-dihydroxyethyl)-3-(2-ethoxyethyl)-3,10-diazabicyclo[4.3.1]decan-2-one]	100 to 500 nM	100 to 500 nM
COCCN1C[C@H](CCO)[C@H]2CCC[C@@H](C1=O)N2S(=O)(=O)c1cc(Cl)cc(Cl)c1 [Compound B8, (1S,5S,6R)-10-((3,5-dichlorophenyl)sulfonyl)-5-(2-hydroxyethyl)-3-(2-methoxyethyl)-3,10-diazabicyclo[4.3.1]decan-2-one]	100 to 500 nM	100 to 500 nM
C=CC1CN(Cc2ccccn2)C(=O)C2CCCC1N2S(=O)(=O)c1cccc(C(N)=O)c1 (stereo in doubt) [Compound K17, 3-(((1S,5R,6R)-2-oxo-3-(pyridin-2-ylmethyl)-5-vinyl-3,10-diazabicyclo[4.3.1]decan-10-yl)sulfonyl)benzamide]	100 to 500 nM	100 to 500 nM
C=CC1CN(Cc2ccccn2)C(=O)C2CCCC1N2S(=O)(=O)c1cc(Br)cc(Br)c1 (stereo in doubt) [Compound K16, (1S,5R,6R)-10-((3,5-dibromophenyl)sulfonyl)-3-(pyridin-2-ylmethyl)-5-vinyl-3,10-diazabicyclo[4.3.1]decan-2-one]	≤ 100 nM	≤ 100 nM
C#CCN1C[C@H](COC)[C@H]2CCC[C@@H](C1=O)N2S(=O)(=O)c1cccc(C(N)=O)c1 [Compound N4, 3-(((1S,5S,6R)-5-(methoxymethyl)-2-oxo-3-(prop-2-yn-1-yl)-3,10-diazabicyclo[4.3.1]decan-10-yl)sulfonyl)benzamide]	100 to 500 nM	100 to 500 nM
COCCN1C[C@H](C(C)O)C2CCCC(C1=O)N2S(=O)(=O)c1cc(Cl)cc(Cl)c1 (stereo in doubt) [Compound B6, (1S,5S,6R)-10-((3,5-dichlorophenyl)sulfonyl)-5-((R)-1-hydroxyethyl)-3-(2-methoxyethyl)-3,10-diazabicyclo[4.3.1]decan-2-one]	≤ 100 nM	≤ 100 nM
C=CC1CN(CCCOCc2ccccc2)C(=O)C2CCCC1N2S(=O)(=O)c1cc(Cl)cc(Cl)c1 (stereo in doubt) [Compound J1, (1S,5R,6R)-3-(3-(benzyloxy)propyl)-10-((3,5-dichlorophenyl)sulfonyl)-5-vinyl-3,10-diazabicyclo[4.3.1]decan-2-one]	100 to 500 nM	100 to 500 nM
C#CCN1C[C@H](COC)[C@H]2CCC[C@@H](C1=O)N2S(=O)(=O)c1ccc(-c2ncccn2)cc1 [Compound N15, (1S,5S,6R)-5-(methoxymethyl)-3-(prop-2-yn-1-yl)-10-((4-(pyrimidin-2-yl)phenyl)sulfonyl)-3,10-diazabicyclo[4.3.1]decan-2-one]	100 to 500 nM	100 to 500 nM
CO[C@H]1CN(C)C(=O)[C@@H]2CCC[C@H]1N2S(=O)(=O)c1cc(Cl)cc(Cl)c1 [Compound H1.3, (1S,5S,6R)-10-((3,5-dichlorophenyl)sulfonyl)-5-methoxy-3-methyl-3,10-diazabicyclo[4.3.1]decan-2-one]	500 to 1000 nM	500 to 1000 nM
C=CC1CN(Cc2ccccn2)C(=O)C2CCCC1N2S(=O)(=O)c1cccnc1 (stereo in doubt) [Compound K26, (1S,5R,6R)-3-(pyridin-2-ylmethyl)-10-(pyridin-3-ylsulfonyl)-5-vinyl-3,10-diazabicyclo[4.3.1]decan-2-one]	100 to 500 nM	100 to 500 nM
COCCCN1CC(CO)C2CCCC(C1=O)N2S(=O)(=O)c1cc(Cl)cc(Cl)c1 (stereo in doubt) [Compound J6, (1S,5R,6R)-10-((3,5-dichlorophenyl)sulfonyl)-5-(hydroxymethyl)-3-(3-methoxypropyl)-3,10-diazabicyclo[4.3.1]decan-2-one]	500 to 1000 nM	100 to 500 nM
COc1ccc(OCCN2C[C@H]([C@H](O)CO)C3CCCC(C2=O)N3S(=O)(=O)c2cc(Cl)cc(Cl)c2)cc1OC (stereo partly drawn) [C2(C2a/b), (1S,5S,6R)-10-((3,5-dichlorophenyl)sulfonyl)-5-(1,2-dihydroxyethyl)-3-(2-(3,4-dimethoxyphenoxy)ethyl)-3, 10-diazabicyclo[4.3.1]decan-2-one]	≤ 100 nM	≤ 100 nM
C=C[C@@H]1CN(Cc2ccccn2)C(=O)[C@@H]2CCC[C@H]1N2S(=O)(=O)c1cc(Br)cc(C(N)=O)c1 [Compound K18, 3-bromo-5-(((1S,5R,6R)-2-oxo-3-(pyridin-2-ylmethyl)-5-vinyl-3,10-diazabicyclo[4.3.1]decan-10-yl)sulfonyl)benzamide]	100 to 500 nM	100 to 500 nM
COc1ccc(OCCN2C[C@H](C(C)(C)O)[C@H]3CCC[C@@H](C2=O)N3S(=O)(=O)c2cc(Cl)cc(Cl)c2)cc1OC [Compound D3, (1S,5S,6R)-10-((3,5-dichlorophenyl)sulfonyl)-3-(2-(3,4-dimethoxyphenoxy)ethyl)-5-(2-hydroxypropan-2-yl)-3,10-diazabicyclo[4.3.1]decan-2-one]	≤ 100 nM	≤ 100 nM
C#CCN1C[C@H](COC)[C@H]2CCC[C@@H](C1=O)N2S(=O)(=O)c1ccc(NC(C)=O)c(Br)c1 [Compound N7, N-(2-bromo-4-(((1S,5S,6R)-5-(methoxymethyl)-2-oxo-3-(prop-2-yn-1-yl)-3,10-diazabicyclo[4.3.1]decan-10-yl)sulfonyl)phenyl)acetamide]	100 to 500 nM	100 to 500 nM
COC[C@H]1CN(Cc2cnn[nH]2)C(=O)[C@@H]2CCC[C@H]1N2S(=O)(=O)c1cc(Cl)c(NC(C)=O)c(Cl)c1 [Compound N24, N-(4-(((1S,5S,6R)-3-((1H-1,2,3-triazol-5-yl)methyl)-5-(methoxymethyl)-2-oxo-3,10-diazabicyclo[4.3.1]decan-10-yl)sulfonyl)-2,6-dichlorophenyl)acetamide]	≤ 100 nM	≤ 100 nM
